We go through seven compounds from PubChem BioAssay (NCI).

Holding throughout (experiment): DTP human tumour cell line panel, 48 h
Assay [1] concerns SNB-19 CNS.
Assay [2] has as its system SF-295 CNS.
Assay [3] relates to HOP-62 NSCLC.
The subject of assay [4] is HT29 colon.
Assay [5] has as its system MDA-MB-435.
The subject of assay [6] is ACHN renal.
For assay [7], the system named is HCC-2998 colon.
In assay [8] the test system is MALME-3M melanoma.
Assay [9] deals with SK-MEL-28 melanoma.
Assay [10] relates to T-47D breast.
The test system of assay [11] is KM12 colon.
In assay [12] the test system is 786-0 renal.
Assay [13] concerns NCI/ADR-RES ovarian.
Assay [14] relates to SK-OV-3 ovarian.
Assay [15] deals with SNB-75 CNS.
Assay [16] deals with BT-549 breast.
Assay [17] relates to NCI-H522 lung.
The test system of assay [18] is RPMI-8226 leukemia.

Broadly, the TGI is the concentration at which net growth stops. A low value points to greater sensitivity of the cells.

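Each compound was tested at five concentrations against cells in 96-well plates for 48 hours. TGI: total growth inhibition.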

For the compound `Cc1c(O)c(OC2OC(CO)C(O)C(O)C2O)cc2c1C=C[C@@H]1[C@@]2(C)C(=O)C[C@]2(C)[C@@H]([C@@](C)(O)C(O)/C=C/C(C)(C)O)[C@H](O)C[C@@]12C` (stereo not given in full), the TGI in [1], in [2], in assay [3], in [4], in assay [5] and in assay [6] was more than 100 µM throughout. For the same compound, the concentration for total growth inhibition (TGI) in assay [7], in assay [8], in assay [9], in [10], in assay [11] and in [12] was more than 100 µM in each case. For the same compound, the TGI in assay [13], in assay [14], in [15], in [16] and in assay [17] was more than 100 µM in each case.
Regarding `O=[N+]([O-])C1=Cc2cc(Cl)ccc2OC1c1cccc2ccccc12` (stereo not given), the TGI in assay [1] amounted to 3.04 µM; in assay [2], 6.19 µM; in assay [3] it was 2.55 µM; in [4], 1.79 µM; in [5], 5.35 µM; in [6], 2.99 µM. For the same compound, the concentration for total growth inhibition (TGI) in [7] was 2.25 µM; in assay [8], 2.91 µM; in [9] it was 3.13 µM; in assay [10] it was 2.81 µM; in assay [11], 3.5 µM; in [12] it was 1.37 µM. For the same compound, the TGI is more than 22.3 µM in assay [13]; 4.86 µM in assay [14]; 1.95 µM in assay [15]; 1.01 µM in assay [16]; 2.9 µM in assay [17].
As for `O=c1[nH]nc(-c2ccccc2)n1/N=C/c1ccco1`, the TGI in assay [1], in assay [2], in assay [3], in [4], in [5] and in [6] was more than 100 µM in each case. The TGI in assay [8], in assay [9], in assay [10], in assay [11], in assay [12] and in [13] was more than 100 µM each time. The TGI in [14] was more than 100 µM; in [15], more than 100 µM; in assay [16], 94.2 µM; in assay [17], more than 100 µM.
Consider `Cn1nc2ccc([N+](=O)[O-])cc2[n+]1[O-]`, for which the TGI in assay [1], in assay [2], in assay [3], in assay [4], in assay [5] and in assay [6] was more than 100 µM in each case. In addition, the TGI in [7], in assay [8], in assay [10], in [11], in assay [12] and in [13] was more than 100 µM in each case. The TGI in [14], in assay [15], in assay [16] and in assay [17] was more than 100 µM in each case.
`CSc1nc(Nc2ccccc2Cl)c2c(N)nn(C)c2n1`: the TGI in assay [1] was more than 100 µM; in [2], more than 100 µM; in [3], more than 100 µM; in [4], more than 100 µM; in assay [5], more than 100 µM; in [6] it was 26 µM. Besides, the TGI was more than 100 µM in assay [7]; more than 100 µM in assay [8]; more than 100 µM in assay [9]; more than 100 µM in assay [18]; 63.5 µM in [10]; more than 100 µM in [11]. Besides, the TGI in [12], in [13], in assay [14], in assay [16] and in [17] was more than 100 µM each time.
Turning to `COC(=O)c1cc(OS(=O)(=O)C(F)(F)F)c(=O)n2c1CCCC2`, the TGI in assay [1], in [2], in [3], in assay [4], in [5] and in [6] was more than 100 µM in each case. Further, the TGI in assay [8], in assay [9], in assay [10], in assay [11], in assay [12] and in [13] was more than 100 µM throughout. The concentration for total growth inhibition (TGI) in [14], in [15], in [16] and in assay [17] was more than 100 µM in each case.
As for `O=C(O)Cc1ccc(Nc2nc3ccccc3nc2C(=O)O)cc1`, the TGI in assay [1], in assay [2], in [3], in assay [4], in assay [5] and in [6] was more than 100 µM throughout. Also, the TGI in [8], in assay [9], in assay [10], in assay [11], in assay [12] and in [13] was more than 100 µM in each case. Further, the TGI in [14], in assay [15], in assay [16] and in assay [17] was more than 100 µM in each case.
